Legend:
[1] = biological target: 5HT3 receptor (5-hydroxytryptamine receptor 3A) (Homo sapiens, UniProt P46098); test: Displacement of [3H]GR65630 from recombinant human 5HT3 receptor transiently expressed in HEKT cell membranes at 10 uM measured after 90 mins by microbeta scintillation counting method relative to control; conditions: probe [3H]GR65630
[2] = biological target: 5-hydroxytryptamine receptor 2C (Homo sapiens) (UniProt P28335); test: Displacement of [3H]-Mesulergine from recombinant human 5HT2C receptor expressed in HEK cell membranes at 10 uM measured after 90 mins by microbeta scintillation counting method relative to control; conditions: probe [3H]-Mesulergine
[3] = biological target: Muscarinic acetylcholine receptor M5 (Homo sapiens, UniProt P08912); test: Displacement of [3H]-QNB/[3H]-NMS from human muscarinic M5 receptor expressed in stable CHO cell membranes after 90 mins by microbeta scintillation counting method
[4] = biological target: mu opioid receptor (MOR) (Homo sapiens, UniProt P35372); test: Displacement of [3H]-DAMGO from recombinant human MOR stably expressed in HEK cell membranes at 10 uM measured after 90 mins by microbeta scintillation counting method relative to control; conditions: HEK cell membranes stably expressing recombinant human MOR, probe [3H]-DAMGO
[5] = biological target: Sodium-dependent dopamine transporter (Homo sapiens, UniProt Q01959); test: Displacement of [3H]-Win35428 from human DAT expressed in stable HEK cell membranes after 90 mins by microbeta scintillation counting method
[6] = biological target: dopamine D4 receptor (Homo sapiens, UniProt P21917); test: Displacement of [3H]-N-methylspiperone from recombinant human D4 receptor stably expressed in HEK cell membranes at 10 uM measured after 90 mins by microbeta scintillation counting method relative to control; conditions: probe [3H]-N-methylspiperone
[7] = biological target: T1, Alpha-1B adrenergic receptor (Homo sapiens, UniProt P35368); test: Displacement of [3H]-prazosin from recombinant human alpha1B adrenergic receptor transiently expressed in HEKT cell membranes measured after 90 mins by microbeta scintillation counting method
T1 sequence (P35368 whole entry): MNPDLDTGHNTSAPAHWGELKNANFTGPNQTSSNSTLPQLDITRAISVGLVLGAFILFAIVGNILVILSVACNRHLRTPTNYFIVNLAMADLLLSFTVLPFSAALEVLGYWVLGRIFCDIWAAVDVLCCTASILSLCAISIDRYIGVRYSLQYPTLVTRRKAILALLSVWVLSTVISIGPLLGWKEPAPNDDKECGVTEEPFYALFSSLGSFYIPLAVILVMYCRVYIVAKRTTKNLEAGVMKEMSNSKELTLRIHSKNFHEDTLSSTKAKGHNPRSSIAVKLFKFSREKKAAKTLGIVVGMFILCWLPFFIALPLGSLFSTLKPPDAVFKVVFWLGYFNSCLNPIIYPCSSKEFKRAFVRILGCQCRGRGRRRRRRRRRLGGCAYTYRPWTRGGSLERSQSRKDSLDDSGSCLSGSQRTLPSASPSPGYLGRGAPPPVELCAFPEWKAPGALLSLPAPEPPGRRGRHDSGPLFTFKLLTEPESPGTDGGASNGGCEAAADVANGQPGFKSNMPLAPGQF

[8] = biological target: 5-hydroxytryptamine receptor 7 (Homo sapiens, UniProt P34969); test: Displacement of [3H]-LSD from recombinant human 5HT7A receptor stably expressed in HEK cell membranes measured after 90 mins by microbeta scintillation counting method
[9] = biological target: Histamine H3 receptor (Homo sapiens, UniProt Q9Y5N1); test: Displacement of [3H]-alpha-methylhistamine from recombinant human histamine H3 receptor expressed in HEK Flp-In cell membranes at 10 uM measured after 90 mins by microbeta scintillation counting method relative to control; conditions: probe [3H]-alpha-methylhistamine
[10] = biological target: noradrenaline transporter (NET) (Homo sapiens, UniProt P23975); test: Displacement of [3H]-Nisoxetine from human NET receptor expressed in stable HEK cell membranes at 10 uM after 90 mins by microbeta scintillation counting method relative to control; conditions: stable HEK cell membranes expressing human NET, probe [3H]-Nisoxetine
[11] = biological target: muscarinic M1 receptor (Homo sapiens, UniProt P11229); test: Displacement of [3H]-QNB/[3H]-NMS from human muscarinic M1 receptor expressed in stable CHO cell membranes at 10 uM after 90 mins by microbeta scintillation counting method relative to control; conditions: probe [3H]-QNB/[3H]-NMS
[12] = biological target: Kappa-type opioid receptor (Homo sapiens, UniProt P41145); test: Displacement of [3H]-U69593 from KOR (unknown origin) measured after 90 mins by microbeta scintillation counting method
[13] = biological target: T2, Alpha-1D adrenergic receptor (Homo sapiens, UniProt P25100); test: Displacement of [3H]-prazosin from recombinant human alpha1D adrenergic receptor measured after 90 mins by microbeta scintillation counting method
T2 sequence (P25100 whole entry): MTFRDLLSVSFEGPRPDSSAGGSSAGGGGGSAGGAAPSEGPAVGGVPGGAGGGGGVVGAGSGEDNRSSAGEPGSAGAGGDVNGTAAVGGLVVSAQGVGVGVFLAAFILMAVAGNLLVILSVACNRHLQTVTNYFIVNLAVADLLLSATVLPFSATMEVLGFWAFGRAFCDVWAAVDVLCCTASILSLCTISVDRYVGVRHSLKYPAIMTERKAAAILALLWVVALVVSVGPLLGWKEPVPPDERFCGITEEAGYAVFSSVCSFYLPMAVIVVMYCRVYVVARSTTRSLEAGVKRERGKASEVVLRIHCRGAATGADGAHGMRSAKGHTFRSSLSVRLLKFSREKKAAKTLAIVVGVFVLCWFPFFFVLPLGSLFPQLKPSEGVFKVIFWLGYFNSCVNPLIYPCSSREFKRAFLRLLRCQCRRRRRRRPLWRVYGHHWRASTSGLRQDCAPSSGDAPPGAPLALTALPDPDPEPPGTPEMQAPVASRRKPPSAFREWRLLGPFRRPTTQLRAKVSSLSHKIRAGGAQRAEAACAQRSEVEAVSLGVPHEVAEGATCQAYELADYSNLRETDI

[14] = biological target: T3, Alpha-1A adrenergic receptor (Homo sapiens, UniProt P35348); test: Displacement of [3H]-prazosin from recombinant human alpha1A adrenergic receptor at 10 uM measured after 90 mins by microbeta scintillation counting method relative to control; conditions: probe [3H]-prazosin
T3 sequence (P35348 whole entry): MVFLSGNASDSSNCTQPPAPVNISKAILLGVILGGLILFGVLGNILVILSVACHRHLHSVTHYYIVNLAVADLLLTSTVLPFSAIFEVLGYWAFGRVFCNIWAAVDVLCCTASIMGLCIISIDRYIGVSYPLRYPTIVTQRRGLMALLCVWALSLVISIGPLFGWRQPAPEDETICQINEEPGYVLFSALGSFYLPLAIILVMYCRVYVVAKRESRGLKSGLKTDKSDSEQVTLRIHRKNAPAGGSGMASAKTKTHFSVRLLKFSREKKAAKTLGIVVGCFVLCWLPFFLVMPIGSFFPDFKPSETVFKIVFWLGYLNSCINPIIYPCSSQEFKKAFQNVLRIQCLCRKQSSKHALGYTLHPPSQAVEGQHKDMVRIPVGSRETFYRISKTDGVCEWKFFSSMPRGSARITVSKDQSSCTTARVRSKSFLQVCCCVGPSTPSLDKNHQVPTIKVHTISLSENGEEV

| Compound | inhibition at […], 10 µM [1] [%] | inhibition at […], 10 µM [2] [%] | Ki ([3]; read-out: Ki) [nM] | inhibition at […], 10 µM [4] [%] | Ki ([5]; read-out: Ki) [nM] | inhibition at […], 10 µM [6] [%] | Ki ([7]; read-out: Ki) [nM] | Ki [8] [nM] | inhibition at […], 10 µM [9] [%] | inhibition at […], 10 µM [10] [%] | inhibition at […], 10 µM [11] [%] | Ki ([12]; read-out: Ki) [nM] | Ki ([13]; read-out: Ki) [nM] | inhibition at […], 10 µM [14] [%] | Ki ([3]; cho) | Ki [5] | Ki [7] | Ki [12] | Ki [13] |
| --- | --- | --- | --- | --- | --- | --- | --- | --- | --- | --- | --- | --- | --- | --- | --- | --- | --- | --- | --- |
| CCCN(CC[C@]1(O)C[C@H](NC(=O)c2ccc3ccccc3c2)C1)[C@H]1CCc2nc(N)sc2C1 | < 50 | > 50 | 2300 | > 50 | 205 | > 50 | 666 | 770 | > 50 | > 50 | < 50 | > 10000 | 1180 | < 50 |  |  |  |  |  |
| CCCN[C@H]1CCc2nc(N)sc2C1 [PRAMIPEXOLE] | > 50 | < 50 |  | < 50 |  | > 50 |  | 1190 | < 50 | < 50 | > 50 |  |  | > 50 | Not Active | Not Active | Not Active | Not Active | Not Active |
